Measured values as given in article PMC6835763, “Influence of Short Cationic Lipopeptides with Fatty Acids of Different Chain Lengths on Bacterial Biofilms Formed on Polystyrene and Hydrogel Surfaces” (Pharmaceutics, 2019).
In brackets after ≈: the same amount, converted by molar mass. Several values for one entry are separate records, joined by “and”; a condition that tells them apart may be missing. Equal entries are not always repeated. Where two headings read alike, the source gives them in different places. Where a SMILES comes first, the peptide text is derived from it. The star is where a group is joined. Palmitoyl = CCCCCCCCCCCCCCCC(=O)*

Key:
[1] = RP-HPLC retention to evaluate the hydrophobicity of lipopeptides; format: physicochemical; conditions: chromatographic, Luna C18(2) 3.0 × 100 mm, 5.0 µm, linear 20–80% acetonitrile in water over 10 min, 0.1% formic acid, 0.5 mL/min, UV 214 nm, used to evaluate hydrophobicity
Protocol: The crude peptide was lyophilized and subsequently purified by RP-HPLC. The purifications were carried out on a Phenomenex Gemini-NX C18 column (21.20 × 100 mm, 5.0 µm particle size, and 110 Å pore size). Acetonitrile and water, both containing 0.1% of TFA, were used as the mobile phase. UV detection at 214 nm was used. The crude peptides were eluted with a linear 20–80% acetonitrile gradient in deionized water over 60 min at a flow rate of 10.0 mL/min. The purity and identity of the peptides were confirmed with LC-MS analysis. A Waters Alliance e2695 RP-HPLC system (Waters, Milford, MA, USA) with Waters 2998 PDA (Waters, Milford, MA, USA) and Acquity QDA detectors (Empower®3 software, Database Version 7.21.00.00) was used. All analyses were carried out on a Phenomenex, Luna C18(2) column (3.0 × 100 mm, 5.0 µm particle size, 100 Å pore size). The samples were analyzed with a linear 20–80% acetonitrile gradient in deionized water over 10 min at a flow rate of 0.5 mL/min with UV detection at 214 nm. Both eluents contained 0.1% (v/v) of formic acid. The pure fractions (>95%, by HPLC analysis) were collected and lyophilized. The retention time and percentage of ACN (%) at which each peptide was eluted are included in Table 1 to evaluate the hydrophobicity of lipopeptides. The identity of all compounds was confirmed using mass spectrometry (Waters Alliance e2695 system with Acquity QDA detector, Waters, Milford, MA, USA) with electrospray ionization in positive ion mode (ESI-MS). In this mode, a proton is attached to basic moieties (amine groups, guanidine groups). The theoretical mass of the peptide was calculated and then expected ions (m/z—mass to charge ratio) were compared to measured m/z. The results are presented in Table 1, and mass spectra are presented in the Supplementary Materials.

[2] = tested on: Enterococcus faecalis ATCC 29212; format: cell-based
Protocol: (§1) The reference strains of gram-positive and gram-negative bacteria (Table 2) were obtained from the Polish Collection of Microorganisms (Polish Academy of Science, Wroclaw, Poland). The microorganisms were cultured in Muller Hinton Broth II (MHB II, Biocorp, Warsaw, Poland), overnight, at 37 °C. The MICs of synthetic lipopeptides and conventional antimicrobials were determined using the broth microdilution method according to the Clinical and Laboratory Standard Institute (CLSI) guidelines on reference strains. […] The PS were incubated under aerobic conditions at 37 °C for 18 h. The MIC (μg/mL) was assumed as the lowest concentration of the compound that inhibited the growth of the microorganisms. All experiments were performed in triplicate and included the growth and sterility controls.

[3] = tested on: Escherichia coli ATCC 25922; format: cell-based
Protocol: as §1

[4] = tested on: Proteus mirabilis PCM 543; format: cell-based
Protocol: as §1

[5] = tested on: Pseudomonas aeruginosa ATCC 9027; format: cell-based
Protocol: as §1

[6] = tested on: Staphylococcus aureus ATCC 25923; format: cell-based
Protocol: as §1

[7] = tested on: Staphylococcus epidermidis ATCC 14990; format: cell-based
Protocol: as §1

[8] = tested on: Enterococcus faecalis ATCC 29212; test: MBFIC assay (biofilm formation inhibition, resazurin); format: cell-based; conditions: ca. 5 × 10^8 CFU/mL in MHB II, 37 °C, 18 h, visual, triplicate; for MBFIC E. faecalis, CL: contact lenses (CL, Etafilcon A hydrogel) in 24-well plates; for MBFIC E. faecalis, PS: polystyrene plates (PS), 96-well
Protocol: (§2) To determine the inhibitory effect of antimicrobials on the formation of biofilm on hydrophobic surfaces, the bacterial suspensions of strains (initial inoculum of ca. 5 × 10^8 CFU/mL in MHB II medium supplemented with antimicrobials) were cultured on 96-well PS at 37 °C for 18 h under aerobic conditions. After incubation, the suspensions were aspirated, and the wells were rinsed three times with sterile phosphate buffer PBS (AppliChem, Darmstadt, Germany) in order to remove the planktonic cells. Resazurin (final concentration per sample = 0.005%) was applied as a cell viability reagent for reading the results. In contact with the living cells, the dye is metabolized by bacterial dehydrogenases, resulting in a reduction of blue resazurin to pink resorufin. All assays were performed in triplicate and included the growth controls (positive controls: bacterial suspensions without antimicrobials) and the sterility controls (negative controls: a sterile MBH medium). After 1h of incubation, a visual evaluation of results was made. […] In a preliminary study, it was established that the application of lipopeptides at a concentration found active from visual evaluation caused the reduction of bacterial metabolism to approximately 10% (or less) of the positive control once the results were evaluated with a spectrophotometer. After 1 h of incubation with the dye, absorbance was measured at 570 and 600 nm using a microplate reader (Thermo Fisher Scientific, Waltham, MA, USA). The metabolic activity of bacteria in the samples was measured according to the formula presented in the previous paper.
(§3) The MBFIC assay with CL was applied in order to access the influence of lipopeptides on the biofilm formation on hydrogel surfaces. The entire sterile CL (1-Day Acuvue Moist, containing Etafilcon A., purchased from Johnson & Johnson (Vision Care, Jacksonsville, FL, USA), were placed in 24-well PS (Orange Scientific, Braine-l’ Alleud, Belgium) and the MBFICs were determined according to the above protocol.

[9] = tested on: Escherichia coli ATCC 25922; test: as above; format: cell-based; conditions: ca. 5 × 10^8 CFU/mL in MHB II, 37 °C, 18 h, visual, triplicate; for MBFIC E. coli, CL: contact lenses (CL, Etafilcon A hydrogel) in 24-well plates; for MBFIC E. coli, PS: polystyrene plates (PS), 96-well
Protocol: as §2, §3

[10] = tested on: Proteus mirabilis PCM 543; test: as above; format: cell-based; conditions: ca. 5 × 10^8 CFU/mL in MHB II, 37 °C, 18 h, visual, triplicate; for MBFIC P. mirabilis, CL: contact lenses (CL, Etafilcon A hydrogel) in 24-well plates; for MBFIC P. mirabilis, PS: polystyrene plates (PS), 96-well
Protocol: as §2, §3

[11] = tested on: Pseudomonas aeruginosa ATCC 9027; test: as above; format: cell-based; conditions: ca. 5 × 10^8 CFU/mL in MHB II, 37 °C, 18 h, visual, triplicate; for MBFIC P. aeruginosa, CL: contact lenses (CL, Etafilcon A hydrogel) in 24-well plates; for MBFIC P. aeruginosa, PS: polystyrene plates (PS), 96-well
Protocol: as §2, §3

[12] = tested on: Staphylococcus aureus ATCC 25923; test: as above; format: cell-based; conditions: ca. 5 × 10^8 CFU/mL in MHB II, 37 °C, 18 h, resazurin, visual, triplicate; for MBFIC S. aureus, CL: contact lenses (CL, Etafilcon A hydrogel) in 24-well plates; for MBFIC S. aureus, PS: polystyrene plates (PS), 96-well
Protocol: as §2, §3

[13] = tested on: Staphylococcus epidermidis ATCC 14990; test: as above; format: cell-based; conditions: for MBFIC S. epidermidis, CL: contact lenses (CL, Etafilcon A hydrogel) in 24-well plates; for MBFIC S. epidermidis, CL / MBFIC S. epidermidis, PS: ca. 5 × 10^8 CFU/mL in MHB II, 37 °C, 18 h, resazurin, visual, triplicate; for MBFIC S. epidermidis, PS: polystyrene plates (PS), 96-well
Protocol: as §2, §3

[14] = MHB II, ca. 5 × 10^6 CFU/mL, 96-well PS, 1–512 μg/mL, 37 °C, 18 h, triplicate

Row | Molecule | % ACN at which the peptide was eluted [1] [%] | tR' (adjusted retention time) [1] [min] | MBFIC E. faecalis, CL [8] | MBFIC E. faecalis, PS [8] | MBFIC E. coli, CL [9] | MBFIC E. coli, PS [9] | MBFIC P. mirabilis, CL [10] | MBFIC P. mirabilis, PS [10] | MBFIC P. aeruginosa, CL [11] | MBFIC P. aeruginosa, PS [11] | MBFIC S. aureus, CL [12] [µg/mL] | MBFIC S. aureus, PS [12] [µg/mL] | MBFIC S. epidermidis, CL [13] [µg/mL] | MBFIC S. epidermidis, PS [13] [µg/mL] | other results
1 | CCCCCCCCCCCCCCCC(=O)N[C@@H](CCCCN)C(=O)N[C@@H](CCCNC(=N)N)C(N)=O [Lipopeptide 8, C16-KR-NH2] (Palmitoyl-Lys-Arg-NH2) | 44.3 | 4.06 | 64/64 μg/mL | 64/64 μg/mL | 64 μg/mL and 64/64 μg/mL | 64 μg/mL and 64/64 μg/mL | 512/512 μg/mL | 512/512 μg/mL | 128 µg/mL | 512 µg/mL | 16 | 8 | 32 | 16 | MIC E. faecalis ([2]; ATCC 29212, 18 h): 64 µg/mL (≈ 119 µM); MIC E. coli ([3]; ATCC 25922, 18 h): 64 µg/mL (≈ 119 µM); MIC P. mirabilis ([4]; PCM 543, 18 h): 512 µg/mL (≈ 948 µM); MIC P. aeruginosa ([5]; ATCC 9027, 18 h): 128 µg/mL (≈ 237 µM); MIC S. aureus ([6]; ATCC 25923, 18 h): 32 µg/mL (≈ 59.3 µM); MIC S. epidermidis ([7]; ATCC 14990, 18 h): 8 µg/mL (≈ 14.8 µM)
2 | (C10)2-KKKK-NH2 [Lipopeptide 9] | 39.6 | 3.27 | 64/64 μg/mL | 64/64 μg/mL | 64 µg/mL | 128 µg/mL | 512/512 μg/mL | 512/512 μg/mL | 64 μg/mL and 64/64 μg/mL | 64 μg/mL and 64/64 μg/mL | 16 | 8 | 16 | 8 | MIC E. faecalis [2, 14]: 16 µg/mL; MIC E. coli [3, 14]: 16 µg/mL; MIC P. mirabilis [4, 14]: 512 µg/mL; MIC P. aeruginosa [5, 14]: 16 µg/mL; MIC S. aureus [6, 14]: 8 µg/mL; MIC S. epidermidis [7, 14]: 2 µg/mL; concentrations inhibiting formation of SE biofilm (MBFIC range) ([13]; range over PS and CL): 8 to 16 µg/mL
